Measured values published in patent US7932396B2, “2-pyridinylcycloalkylbenzamide derivatives and their use as fungicides” (Bayer Cropscience AG, priority 2005, dated 2011).

Key:
[1] = tested on: Alternaria brassicae; assay: In vivo test on Alternaria brassicae (leaf spot of crucifers) on radish plants; conditions: 330 ppm; comparison compounds of WO 01/11965
Description: (§1) The active ingredients tested are prepared by homogenization in a mixture of DMSO (dimethylsulfoxid)/acetone/tween/water. This suspension is then diluted with water to obtain the desired active material concentration.
Radish plants (Pernot variety) in starter cups, sown on a 50/50 peat soil-pozzolana substrate and grown at 18-20° C., are treated at the cotyledon stage by spraying with the aqueous suspension described above.
Plants, used as controls, are treated with an aqueous solution not containing the active material.
After 24 hours, the plants are contaminated by spraying them with an aqueous suspension of Alternaria brassicae spores (40,000 spores per cm^3). The spores are collected from a 12-13-day-old culture.
The contaminated radish plants are incubated for 6-7 days at about 18° C., under a humid atmosphere.
Grading is carried out 6 to 7 days after the contamination, in comparison with the control plants.

[2] = tested on: Peronospora parasitica; assay: Efficacy against Peronospora parasitica; format: in vivo; conditions: 330 ppm; comparison compound of WO 01/11965
[3] = tested on: Botrytis cinerea; assay: In vivo test on Botrytis cinerea (gherkin grey mould) on gherkin plants; conditions: 330 ppm; comparison compounds of WO 01/11965
Description: as §1
Gherkin plants (Petit Vert de Paris variety) in starter cups, sown on a 50/50 peat soil-pozzolana substrate and grown at 18-20° C., are treated at the cotyledon Z11 stage by spraying with the aqueous suspension described above. Plants, used as controls, are treated with an aqueous solution not containing the active material.
After 24 hours, the plants are contaminated by depositing drops of an aqueous suspension of Botrytis cinerea spores (150,000 spores per ml) on upper surface of the leaves. The spores are collected from a 15-day-old culture and are suspended in a nutrient solution composed of: • 20 g/L of gelatin • 50 g/L of cane sugar • 2 g/L of NH4NO3 • 1 g/L of KH2PO4
The contaminated gherkin plants are settled for 5/7 days in a climatic room at 15-11° C. (day/night) and at 80% relative humidity.
Grading is carried out 5/7 days after the contamination, in comparison with the control plants.

| SMILES | effectiveness on Alternaria brassicae [1] | efficacy against Peronospora parasitica [2] | effectiveness on Botrytis cinerea [3] |
| --- | --- | --- | --- |
| O=C(Cc1cccs1)NCc1ncc(C(F)(F)F)cc1Cl [compound 101, N-{[3-chloro-5-(trifluoromethyl)-2-pyridinyl]methyl}-5-thienylacetamide] | poor efficacy | no efficacy | no efficacy |
| CCNC(=O)C(Cc1ncc(C(F)(F)F)cc1Cl)NC(=O)c1ccccc1 (stereo not drawn) [compound 304, N-{1-ethylcarbamoyl-2-[3-chloro-5-(trifluoromethyl)-2-pyridinyl]-ethyl}-benzamide] | – | – | zero effectiveness |
| CCNC(=O)C(Cc1ncc(C(F)(F)F)cc1Cl)NC(=O)c1ccc(Cl)cc1 (stereo not drawn) [compound 306, N-{1-ethylcarbamoyl-2-[3-chloro-5-(trifluoromethyl)-2-pyridinyl]ethyl}-4-chlorobenzamide] | – | – | zero effectiveness |
| CCNC(=O)C(Cc1ncc(C(F)(F)F)cc1Cl)NC(=O)c1cccc([N+](=O)[O-])c1 (stereo not drawn) [compound 307, N-{1-ethylcarbamoyl-2-[3-chloro-5-(trifluoromethyl)-2-pyridinyl]ethyl}-3-nitrobenzamide] | poor effectiveness | – | zero effectiveness |
| CCNC(=O)C(Cc1ncc(C(F)(F)F)cc1Cl)NC(=O)c1ccccc1Br (stereo not drawn) [compound 310, N-{1-ethylcarbamoyl-2-[3-chloro-5-(trifluoromethyl)-2-pyridinyl]ethyl}-2-bromobenzamide] | – | – | zero effectiveness |
| CNC(=O)C(Cc1ncc(C(F)(F)F)cc1Cl)NC(=O)c1ccccc1 (stereo not drawn) [compound 314, N-{1-methylcarbamoyl-2-[3-chloro-5-(trifluoromethyl)-2-pyridinyl]ethyl}-benzamide] | – | – | zero effectiveness |
| CNC(=O)C(Cc1ncc(C(F)(F)F)cc1Cl)NC(=O)c1ccc(OC)cc1 (stereo not drawn) [compound 315, N-{1-methylcarbamoyl-2-[3-chloro-5-(trifluoromethyl)-2-pyridinyl]ethyl}-4-methoxybenzamide] | – | – | zero effectiveness |
| CNC(=O)C(Cc1ncc(C(F)(F)F)cc1Cl)NC(=O)c1ccc(-c2ccccc2)cc1 (stereo not drawn) [compound 316, N-{1-methylcarbamoyl-2-[3-chloro-5-(trifluoromethyl)-2-pyridinyl]-ethyl}-4-phenylbenzamide] | poor effectiveness | – | zero effectiveness |
